Data as given in patent US20260207563A1, “UREA COMPOUNDS AS ACTIVATORS OF POTASSIUM CHANNELS KV7.2/7.3 USEFUL IN THE TREATMENT OF CNS AND PNS DISORDERS” (ANGELINI PHARMA S.P.A., priority 2022, published 2026).
pEC50: −log10 of the molar value.

Assays:
Format in all cases: cell-based
[1] = biological target: T1, heteromeric KV7.2/KV7.3 channels (KCNQ2, KCNQ3) (Homo sapiens, UniProt O43525+O43526); experiment: Automated patch-clamp (Sophion Qube 384) potency assay against KV7.2/KV7.3 channels; details: CHO-K1/Kv7.2/Kv7.3 cells; for pEC50: EC50 from concentration-response of shift in Vhalf, 10 concentrations up to 30 μM, read-out: Kv7.2/7.3 EC50; for Kv7.2/7.3 ΔV1/2: maximal shift in the Vhalf from the top of the curve
T1 construct: expressed in transfected cells; host or cells: CHO-K1
How it was run: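 Whole-cell automated patch clamp on CHO-K1 cells stably expressing human KV7.2/KV7.3, held at −80 mV; I-V steps −100 to +20 mV (1 s) with 0 mV tail pulses, Boltzmann-fitted activation curves. Ten concentrations (1:3 from 30 μM, quadruplicate) versus 0.3% DMSO control; EC50 and maximal shift from 4-parameter fits of Vhalf shift.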

[2] = biological target: T2, heteromeric KV7.3/KV7.5 channel (KCNQ3, KCNQ5) (Homo sapiens, UniProt O43525+Q9NR82); experiment: Automated patch-clamp counter-screening against KV7.3/KV7.5 channel; details: HEK293 cells expressing Kv7.3/KV7.5; class by maximal shift in the Vhalf at 30 μM
T2 construct: host or cells: HEK293
How it was run: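 HEK293 cells with constitutive Kv7.3 and tetracycline-inducible Kv7.5 were recorded by automated patch clamp. Ten concentrations (1:3 series from 30 μM, quadruplicate) were tested; Vhalf shifts were fitted with a 4-parameter logistic to give EC50 and maximal Vhalf shift, with selectivity based on the shift at 30 μM.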

[3] = biological target: T3, homomeric KV7.4 channel (KCNQ4) (Homo sapiens, UniProt P56696); experiment: Automated patch-clamp (Qube) counter-screening assay against KV7.4 channel; details: CHO-K1 cells expressing KV7.4; class by maximal shift in the Vhalf at 30 μM
T3 construct: host or cells: CHO-K1
How it was run: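 CHO-K1 cells stably expressing homomeric human KV7.4 were recorded on the Qube automated patch clamp. Ten concentrations (1:3 dilutions from 30 μM) were tested in quadruplicate. The mean Vhalf shift was fitted with a 4-parameter logistic to give EC50 and maximal Vhalf shift, and selectivity was based on the shift at 30 μM.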

SMILES	pEC50 [1]	Kv7.2/7.3 ΔV1/2 [1]	Kv7.3/7.5 selectivity criteria [2]	Kv7.4 selectivity criteria [3]
C[C@@H](NC(=O)NCCC1(C(F)(F)F)CC1)c1ccnc(OCC(F)(F)F)c1 [Compound 65, (R)-1-(1-(2-(2,2,2-Trifluoroethoxy)pyridin-4-yl)ethyl)-3-(2-(1-(trifluoromethyl)cyclopropyl)ethyl)urea]	6.82	26.28 mV	A (Selective compounds showed Kv7.4 and/or Kv7.3/7.5 ΔV1/2 equal to or lower than 15 mV (letter A in table 3))	A (Selective compounds showed Kv7.4 and/or Kv7.3/7.5 ΔV1/2 equal to or lower than 15 mV (letter A in table 3))
C[C@H](NC(=O)NCCC1(C(F)(F)F)CC1)c1ccnc(OCC(F)(F)F)c1 [Compound 67, (S)-1-(1-(2-(2,2,2-Trifluoroethoxy)pyridin-4-yl)ethyl)-3-(2-(1-(trifluoromethyl)cyclopropyl)ethyl)urea]	5.30	23.87 mV	A (Selective compounds showed Kv7.4 and/or Kv7.3/7.5 ΔV1/2 equal to or lower than 15 mV (letter A in table 3))	A (Selective compounds showed Kv7.4 and/or Kv7.3/7.5 ΔV1/2 equal to or lower than 15 mV (letter A in table 3))
CN(CC(F)(F)F)c1cc(CNC(=O)NCCC2(C(F)(F)F)CC2)ccn1 [Compound 68, 1-((2-(Methyl(2,2,2-trifluoroethyl)amino)pyridin-4-yl)methyl)-3-(2-(1-(trifluoromethyl)cyclopropyl)ethyl)urea]	5.33	27.19 mV	A (Selective compounds showed Kv7.4 and/or Kv7.3/7.5 ΔV1/2 equal to or lower than 15 mV (letter A in table 3))	A (Selective compounds showed Kv7.4 and/or Kv7.3/7.5 ΔV1/2 equal to or lower than 15 mV (letter A in table 3))
O=C(NCCC1(C(F)(F)F)CC1)NCc1ccnc(C(F)(F)F)c1 [Compound 69, 1-(2-(1-(Trifluoromethyl)cyclopropyl)ethyl)-3-((2-(trifluoromethyl)pyridin-4-yl)methyl)urea]	5.37	23.15 mV	A (Selective compounds showed Kv7.4 and/or Kv7.3/7.5 ΔV1/2 equal to or lower than 15 mV (letter A in table 3))	A (Selective compounds showed Kv7.4 and/or Kv7.3/7.5 ΔV1/2 equal to or lower than 15 mV (letter A in table 3))
O=C(NCc1ccnc(OCC(F)(F)F)c1)NCC1CCC(F)(F)CC1 [Compound 70, 1-((4,4-Difluorocyclohexyl)methyl)-3-((2-(2,2,2-trifluoroethoxy)pyridin-4-yl)methyl)urea]	6.01	26.04 mV	A (Selective compounds showed Kv7.4 and/or Kv7.3/7.5 ΔV1/2 equal to or lower than 15 mV (letter A in table 3))	A (Selective compounds showed Kv7.4 and/or Kv7.3/7.5 ΔV1/2 equal to or lower than 15 mV (letter A in table 3))
O=C(NCc1ccnc(OCC(F)(F)F)c1)NC1CCC(F)(F)CC1 [Compound 71, 1-(4,4-Difluorocyclohexyl)-3-((2-(2,2,2-trifluoroethoxy)pyridin-4-yl)methyl)urea]	5.80	55.93 mV	B (Non-selective compounds showed Kv7.4 and/or Kv7.3/7.5 ΔV1/2 higher than 15 mV (letter B in table 3))	B (Non-selective compounds showed Kv7.4 and/or Kv7.3/7.5 ΔV1/2 higher than 15 mV (letter B in table 3))
CC(C)(C)[C@@H](O)CNC(=O)NCc1ccnc(OCC(F)(F)C(F)(F)F)c1 [Compound 73, (R)-1-(2-Hydroxy-3,3-dimethylbutyl)-3-((2-(2,2,3,3,3-pentafluoropropoxy)pyridin-4-yl)methyl)urea]	5.61	26.35 mV	A (Selective compounds showed Kv7.4 and/or Kv7.3/7.5 ΔV1/2 equal to or lower than 15 mV (letter A in table 3))	A (Selective compounds showed Kv7.4 and/or Kv7.3/7.5 ΔV1/2 equal to or lower than 15 mV (letter A in table 3))
O=C(NCCC1(C(F)(F)F)CC1)NCc1ccnc(OCCC(F)(F)F)c1 [Compound 74, 1-(2-(1-(Trifluoromethyl)cyclopropyl)ethyl)-3-((2-(3,3,3-trifluoropropoxy)pyridin-4-yl)methyl)urea]	5.75	26.68 mV	A (Selective compounds showed Kv7.4 and/or Kv7.3/7.5 ΔV1/2 equal to or lower than 15 mV (letter A in table 3))	A (Selective compounds showed Kv7.4 and/or Kv7.3/7.5 ΔV1/2 equal to or lower than 15 mV (letter A in table 3))
O=C(NCc1ccnc(OCC(F)(F)F)c1)NCc1ccccc1Cl [Compound 75, 1-(2-Chlorobenzyl)-3-((2-(2,2,2-trifluoroethoxy)pyridin-4-yl)methyl)urea]	6.29	25.35 mV	A (Selective compounds showed Kv7.4 and/or Kv7.3/7.5 ΔV1/2 equal to or lower than 15 mV (letter A in table 3))	B (Non-selective compounds showed Kv7.4 and/or Kv7.3/7.5 ΔV1/2 higher than 15 mV (letter B in table 3))
O=C(NCc1ccnc(OCC(F)(F)F)c1)Nc1cc(F)cc(Cl)c1 [Compound 77, 1-(3-Chloro-5-fluorophenyl)-3-((2-(2,2,2-trifluoroethoxy)pyridin-4-yl)methyl)urea]	6.26	32.37 mV	A (Selective compounds showed Kv7.4 and/or Kv7.3/7.5 ΔV1/2 equal to or lower than 15 mV (letter A in table 3))	B (Non-selective compounds showed Kv7.4 and/or Kv7.3/7.5 ΔV1/2 higher than 15 mV (letter B in table 3))
CC(C)(C)[C@@H](O)CNC(=O)NCc1ccnc(OCCC(F)(F)F)c1 [Compound 78, (R)-1-(2-Hydroxy-3,3-dimethylbutyl)-3-((2-(3,3,3-trifluoropropoxy)pyridin-4-yl)methyl)urea]	4.93	19.21 mV	A (Selective compounds showed Kv7.4 and/or Kv7.3/7.5 ΔV1/2 equal to or lower than 15 mV (letter A in table 3))	A (Selective compounds showed Kv7.4 and/or Kv7.3/7.5 ΔV1/2 equal to or lower than 15 mV (letter A in table 3))
O=C(NCc1ccnc(OCC(F)(F)F)c1)NCC1CCCC(F)(F)C1 (stereo not shown) [Compound 79, 1-((3,3-Difluorocyclohexyl)methyl)-3-((2-(2,2,2-trifluoroethoxy)pyridin-4-yl)methyl) urea]	6.06	26.55 mV	A (Selective compounds showed Kv7.4 and/or Kv7.3/7.5 ΔV1/2 equal to or lower than 15 mV (letter A in table 3))	A (Selective compounds showed Kv7.4 and/or Kv7.3/7.5 ΔV1/2 equal to or lower than 15 mV (letter A in table 3))
O=C(NCCC1(C(F)(F)F)CC1)NCc1ccc(OCC(F)(F)F)nc1 [Compound 80, 1-((6-(2,2,2-Trifluoroethoxy)pyridin-3-yl)methyl)-3-(2-(1-(trifluoromethyl)cyclopropyl)ethyl)urea]	5.41	28.15 mV	A (Selective compounds showed Kv7.4 and/or Kv7.3/7.5 ΔV1/2 equal to or lower than 15 mV (letter A in table 3))	B (Non-selective compounds showed Kv7.4 and/or Kv7.3/7.5 ΔV1/2 higher than 15 mV (letter B in table 3))
O=C(NCCC1(C(F)(F)F)CC1)NCc1cc(OCC(F)(F)F)nc(C(F)(F)F)c1 [Compound 82, 1-((2-(2,2,2-Trifluoroethoxy)-6-(trifluoromethyl)pyridin-4-yl)methyl)-3-(2-(1-(trifluoromethyl)cyclopropyl)ethyl)urea]	5.67	18.38 mV	A (Selective compounds showed Kv7.4 and/or Kv7.3/7.5 ΔV1/2 equal to or lower than 15 mV (letter A in table 3))	B (Non-selective compounds showed Kv7.4 and/or Kv7.3/7.5 ΔV1/2 higher than 15 mV (letter B in table 3))
O=C(NCc1ccnc(OCC(F)(F)F)c1)NCc1cc(F)ccc1Cl [Compound 85, 1-(2-Chloro-5-fluorobenzyl)-3-((2-(2,2,2-trifluoroethoxy)pyridin-4-yl)methyl)urea]	6.69	20.49 mV	A (Selective compounds showed Kv7.4 and/or Kv7.3/7.5 ΔV1/2 equal to or lower than 15 mV (letter A in table 3))	A (Selective compounds showed Kv7.4 and/or Kv7.3/7.5 ΔV1/2 equal to or lower than 15 mV (letter A in table 3))
O=C(NCc1ccnc(OCC(F)(F)F)c1)N[C@@H]1CCc2ccc(F)cc21 [Compound 86, (R)-1-(6-fluoro-2,3-dihydro-1H-inden-1-yl)-3-((2-(2,2,2-trifluoroethoxy)pyridin-4-yl)methyl)urea]	5.87	38.89 mV	A (Selective compounds showed Kv7.4 and/or Kv7.3/7.5 ΔV1/2 equal to or lower than 15 mV (letter A in table 3))	A (Selective compounds showed Kv7.4 and/or Kv7.3/7.5 ΔV1/2 equal to or lower than 15 mV (letter A in table 3))
